What all share (assay): […]cAMP formation from [alpha-32P]ATP, Sf9 membranes
Holding throughout (type): biochemical

In assay [1] the target is T1, bovine AC1 (Bos taurus, UniProt P19754).
In assay [2] the target is T2, canine AC5 (Canis lupus, UniProt P30803).
Assay [3] concerns the target T3, rat AC2 (Rattus norvegicus, UniProt P26769).
Assay [4] addresses T2, canine AC5. The following applies: 300 µM; 7 mM Mg2+, 40 μM ATP, 10 μM GTPγS, pH 7.4, 30°C, 3% DMSO.
The target of assay [5] is T3, rat AC2. The following applies: 300 µM; 7 mM Mg2+, 40 μM ATP, 10 μM GTPγS, pH 7.4, 30°C, 3% DMSO.
Assay [6] has as its target T1, bovine AC1. As to conditions: 300 µM; 7 mM Mg2+, 40 μM ATP, 10 μM GTPγS, pH 7.4, 30°C, 3% DMSO.

T3 sequence (P26769 whole entry): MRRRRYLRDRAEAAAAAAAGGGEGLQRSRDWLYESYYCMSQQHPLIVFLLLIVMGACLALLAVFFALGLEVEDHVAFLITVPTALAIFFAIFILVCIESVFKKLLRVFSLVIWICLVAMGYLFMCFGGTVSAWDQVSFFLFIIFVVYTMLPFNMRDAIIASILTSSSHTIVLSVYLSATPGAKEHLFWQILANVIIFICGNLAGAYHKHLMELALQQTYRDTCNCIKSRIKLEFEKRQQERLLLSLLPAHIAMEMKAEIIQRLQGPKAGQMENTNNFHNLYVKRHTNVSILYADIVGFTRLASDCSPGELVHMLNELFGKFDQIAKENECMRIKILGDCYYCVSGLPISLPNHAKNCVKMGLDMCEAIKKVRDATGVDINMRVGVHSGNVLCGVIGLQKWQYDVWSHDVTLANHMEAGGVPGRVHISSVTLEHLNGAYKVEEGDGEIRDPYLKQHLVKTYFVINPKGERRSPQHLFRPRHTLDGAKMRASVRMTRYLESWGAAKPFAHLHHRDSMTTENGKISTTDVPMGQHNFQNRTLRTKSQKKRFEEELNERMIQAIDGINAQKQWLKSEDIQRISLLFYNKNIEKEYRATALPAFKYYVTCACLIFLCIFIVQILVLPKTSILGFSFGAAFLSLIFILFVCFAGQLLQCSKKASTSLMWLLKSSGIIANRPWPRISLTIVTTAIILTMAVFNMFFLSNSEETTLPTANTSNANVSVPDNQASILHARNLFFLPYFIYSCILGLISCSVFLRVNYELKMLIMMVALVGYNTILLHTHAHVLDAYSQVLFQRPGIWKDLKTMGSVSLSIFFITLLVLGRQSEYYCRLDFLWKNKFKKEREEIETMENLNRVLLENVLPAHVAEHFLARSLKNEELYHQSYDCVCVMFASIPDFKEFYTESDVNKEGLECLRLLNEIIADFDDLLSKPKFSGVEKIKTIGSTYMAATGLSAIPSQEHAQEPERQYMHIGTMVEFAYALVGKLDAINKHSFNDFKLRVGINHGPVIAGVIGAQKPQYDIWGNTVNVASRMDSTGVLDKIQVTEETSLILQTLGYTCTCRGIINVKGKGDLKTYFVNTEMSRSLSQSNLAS
T2 sequence (P30803 whole entry): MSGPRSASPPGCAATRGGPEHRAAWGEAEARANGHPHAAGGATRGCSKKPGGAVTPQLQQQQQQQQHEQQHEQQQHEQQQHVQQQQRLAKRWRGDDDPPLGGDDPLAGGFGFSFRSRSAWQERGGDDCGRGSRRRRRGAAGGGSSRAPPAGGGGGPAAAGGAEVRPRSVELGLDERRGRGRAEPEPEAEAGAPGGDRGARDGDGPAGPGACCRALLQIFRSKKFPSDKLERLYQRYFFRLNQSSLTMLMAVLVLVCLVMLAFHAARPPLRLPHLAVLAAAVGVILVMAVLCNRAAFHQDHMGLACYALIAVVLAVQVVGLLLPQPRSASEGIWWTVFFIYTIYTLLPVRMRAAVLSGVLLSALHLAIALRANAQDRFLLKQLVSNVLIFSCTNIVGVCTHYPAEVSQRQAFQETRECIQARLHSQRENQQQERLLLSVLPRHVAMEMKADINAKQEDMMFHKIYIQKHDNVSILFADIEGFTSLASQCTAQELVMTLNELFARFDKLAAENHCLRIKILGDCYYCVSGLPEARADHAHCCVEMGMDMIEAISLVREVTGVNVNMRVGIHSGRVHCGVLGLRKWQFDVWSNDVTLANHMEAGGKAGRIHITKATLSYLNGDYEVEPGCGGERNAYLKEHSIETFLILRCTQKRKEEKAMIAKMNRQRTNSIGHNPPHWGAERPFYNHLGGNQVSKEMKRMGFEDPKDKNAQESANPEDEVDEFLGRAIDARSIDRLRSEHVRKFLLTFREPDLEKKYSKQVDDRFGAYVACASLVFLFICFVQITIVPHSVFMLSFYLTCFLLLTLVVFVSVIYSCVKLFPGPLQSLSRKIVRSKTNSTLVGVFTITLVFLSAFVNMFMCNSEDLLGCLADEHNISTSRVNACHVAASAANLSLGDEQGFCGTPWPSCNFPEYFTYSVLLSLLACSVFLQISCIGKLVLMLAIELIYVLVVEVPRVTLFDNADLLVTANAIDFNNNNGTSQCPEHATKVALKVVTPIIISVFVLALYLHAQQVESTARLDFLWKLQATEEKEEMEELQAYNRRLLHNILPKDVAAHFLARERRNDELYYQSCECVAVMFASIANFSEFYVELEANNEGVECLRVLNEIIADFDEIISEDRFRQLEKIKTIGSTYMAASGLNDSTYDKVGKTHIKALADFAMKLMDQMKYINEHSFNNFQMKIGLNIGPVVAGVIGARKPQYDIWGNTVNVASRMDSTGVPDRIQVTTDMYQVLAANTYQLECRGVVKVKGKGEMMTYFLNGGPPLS
T1 sequence (P19754 whole entry): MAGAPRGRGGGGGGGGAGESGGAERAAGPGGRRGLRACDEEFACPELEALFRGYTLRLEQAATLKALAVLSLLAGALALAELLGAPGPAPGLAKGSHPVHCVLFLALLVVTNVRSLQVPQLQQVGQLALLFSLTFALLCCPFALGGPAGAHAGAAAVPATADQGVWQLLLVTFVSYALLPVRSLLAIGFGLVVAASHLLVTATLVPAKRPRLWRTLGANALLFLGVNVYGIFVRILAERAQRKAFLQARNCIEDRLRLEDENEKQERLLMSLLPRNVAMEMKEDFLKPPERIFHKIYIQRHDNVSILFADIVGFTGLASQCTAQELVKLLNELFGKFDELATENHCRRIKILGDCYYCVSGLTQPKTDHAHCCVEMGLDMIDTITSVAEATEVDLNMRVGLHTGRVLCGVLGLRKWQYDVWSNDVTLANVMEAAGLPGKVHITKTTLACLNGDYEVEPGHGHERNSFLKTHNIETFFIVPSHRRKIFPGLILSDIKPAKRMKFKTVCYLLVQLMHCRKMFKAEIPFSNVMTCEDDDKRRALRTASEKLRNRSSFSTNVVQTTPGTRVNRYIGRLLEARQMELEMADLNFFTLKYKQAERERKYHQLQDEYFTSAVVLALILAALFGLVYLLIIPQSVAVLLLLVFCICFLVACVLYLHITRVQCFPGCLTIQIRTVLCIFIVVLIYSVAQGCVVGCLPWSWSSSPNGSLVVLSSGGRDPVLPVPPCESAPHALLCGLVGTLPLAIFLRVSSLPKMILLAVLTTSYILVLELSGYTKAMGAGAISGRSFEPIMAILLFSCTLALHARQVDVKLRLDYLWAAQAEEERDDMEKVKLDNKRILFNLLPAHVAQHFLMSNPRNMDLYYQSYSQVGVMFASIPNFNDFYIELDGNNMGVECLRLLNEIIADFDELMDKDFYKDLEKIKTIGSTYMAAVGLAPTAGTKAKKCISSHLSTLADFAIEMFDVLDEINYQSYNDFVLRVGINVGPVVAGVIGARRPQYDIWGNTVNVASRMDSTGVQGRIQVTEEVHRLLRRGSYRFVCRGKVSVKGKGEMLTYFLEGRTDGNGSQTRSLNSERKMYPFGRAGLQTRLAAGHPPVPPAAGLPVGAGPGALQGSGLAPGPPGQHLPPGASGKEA

As to `C=C[C@@]1(C)CC(=O)[C@]2(O)[C@@]3(C)[C@@H](O)CCC(C)(C)[C@@H]3[C@H](O)[C@H](OC(C)=O)[C@@]2(C)O1` [FS], the 50% effective concentration (EC50) in assay [1] is 5.5 ± 0.8 µM; in assay [2], 4.6 ± 1.5 µM; in assay [3], 47.3 ± 8.1 µM.
For `C=C[C@@]1(C)CC(=O)[C@]2(O)[C@@]3(C)[C@@H](O)CCC(C)(C)[C@@H]3[C@H](OC(C)=O)[C@H](O)[C@@]2(C)O1` [6A7DA-FS], the figures for the half-maximal effective concentration (EC50) in assay [1], in assay [2] and in assay [3] were 6.5 ± 2.1 µM, 52.1 ± 16.7 µM and 1.8 µM, respectively.
`C=C[C@@]1(C)CC(=O)[C@]2(O)[C@@]3(C)CCCC(C)(C)[C@@H]3[C@H](O)[C@H](OC(C)=O)[C@@]2(C)O1` [1d-FS]: the “AC5 / Efficacy [%]” value in assay [4] is on record as 14.7 ± 4.4%. The “AC2 / Efficacy [%]” value in assay [5] was 1.7 ± 3.4%. Moreover, the “AC1 / Efficacy [%]” value in assay [6] worked out at 11.1 ± 4.7%.
With `C=C[C@@]1(C)CC(=O)[C@H]2[C@](C)(O1)[C@@H](OC(C)=O)[C@@H](O)[C@H]1C(C)(C)CC[C@H](O)[C@@]12C` [9d-FS], the 50% effective concentration (EC50) was found to be 16.8 ± 3 µM in assay [1], 77.8 ± 46.1 µM in assay [2] and 242 ± 113 µM in assay [3].
